Assay results as given in patent US20130071897A1, “METHOD FOR CONTROLLING UNDESIRABLE BYPRODUCTS FORMATION CAUSED BY CONTAMINATING ORGANISMS IN THE PRODUCTION OF ETHANOL FROM SYNGAS” (COSKATA, INC., priority 2011, published 2013).
Several values for one entry are separate records, joined by “and”; a condition that tells them apart may be missing. Identical values can stand only once.

What was measured:
Type in all cases: cell-based
[1] = system: Clostridium tyrobutyricum; assay: Serum bottle batch fermentation of Clostridium tyrobutyricum on fructose, optical density; details: for O.D. Response: 5 mM, duplicates A and B
Procedure: Ethyl 3-(trifluoromethyl)benzoate is evaluated in a series of batch fermentations to determine the growth response of butyrogens to the presence of this compound at varying concentrations. The batch fermentations are conducted by anoxically filling 100 mL serum bottles with 15 mL of media having the composition given in Tables 12 and 13. About 0.15 mL of a 50% w/w solution of fructose in water (final fructose concentration about 5 g/L) is provided in the bottles. Duplicate runs are conducted for each concentration.
(§1) Each bottle is inoculated with 1.5 mL of seed culture inoculum of the strict butyrogen Clostridium tyrobutyricum, which has an OD of about 0.40 (which upon a 10 times dilution provides a starting OD for the fermentation of about 0.04). The bottles are maintained at a temperature of 37° C. Two hours after inoculation of the bottles with the bacteria, the compound is added to different bottles as a solution in 50 μL of N-methylpyrrolidone in the amounts indicated in Table 15. The fermentation process is allowed to progress at 37° C. At selected intervals of time, bacterial growth is measured by reading the optical density (OD) of the fermentation liquid. Optical density is measured by anoxically removing an aliquot of fermentation liquid and adding it to a disposable cuvette. OD's ranging between 0.01 and 0.4 are measured directly, while OD's greater than 0.4 are measure after performing a 1/10 dilution with water.
In this example ethyl 4,4,4-trifluoro-3-(trifluoromethyl)crotonate and ethyl 3-trifluoromethyl-4-methoxybenzoate are evaluated by batch fermentation. The batch fermentations are conducted by anoxically filling 100 mL serum bottles with 15 mL of media having the composition given in Tables 12 and 13. About 0.15 mL of a 50% w/w solution of fructose in water (final fructose concentration about 5 g/L) is provided in the bottles. Duplicate runs are conducted for each concentration.
as §1, with “of about 0.42 (which upon” for “of about 0.40 (which upon”, “of about 0.042). The bottles” for “of about 0.04). The bottles”, “in Table 16 and 17. The fermentation” for “in Table 15. The fermentation”, “0.4 are measured after performing” for “0.4 are measure after performing”

C. carboxidivorans = assay: Product profiles of C. carboxidivorans cultures by GC-MSD; details: 500 and 1000 ppm; 54 hour cultures
Procedure: Product profiles were determined on the C. carboxidivorans cultures that grew in the presence of compound A. A GC-MSD was performed on 54 hour cultures and product distributions were calculated based on the resultant areas of the output (See FIG. 2). In cultures with no compound A addition, the distribution of C2, C4 and C6 acids and alcohols was similar in both samples. As the compound A concentration increased the amount of C2, particularly the alcohols, increased. […] Thus, such crotonate derivatives can effectively limit the amount of butyl impurity accumulation in the fermentation zone from heteroacetogens which can compete effectively in syngas cultures with homoacetogenic bacteria.

[2] = system: Clostridium tyrobutyricum; assay: Butyric acid by gas chromatography in Clostridium tyrobutyricum batch fermentations; details: 5 mM, duplicates A and B
Procedure: The concentration of butyric acid is determined by gas chromatography for several of the above samples at the stated points in time. The butyrate production is calculated based upon peak area calculations generated by the gas chromatograph. At 11 hours, the concentration of butyric acid for each of the controls is about 0.95 gram per liter, and the concentration of butyric acid for the samples containing 500 ppm of the inhibitor are about 0.6 gram per liter.
The concentration of butyric acid is determined by gas chromatography using the procedure set forth in Example 13. The control is reported only in Table 18.

In the case of CCOC(=O)/C=C(\N)C(F)(F)F [B, ethyl-3-amino-4,4,4-trifluorocrotonate], the “O.D. Response to Varying Inhibitor Concentrations” value ([1]; 100 ppm, 22.5 Hours, added 25 h after inoculation) is reported as 0.84, the “O.D. Response to Varying Inhibitor Concentrations” value ([1]; 100 ppm, 28.5 Hours) is reported as 1.48 and the “O.D. Response to Varying Inhibitor Concentrations” value ([1]; 100 ppm, 43.5 Hours) is reported as 1.53. For the same compound, the “O.D. Response to Varying Inhibitor Concentrations” value ([1]; 250 ppm, 22.5 Hours, added 25 h after inoculation) was 0.86, the “O.D. Response to Varying Inhibitor Concentrations” value ([1]; 250 ppm, 28.5 Hours) was 1.87 and the “O.D. Response to Varying Inhibitor Concentrations” value ([1]; 250 ppm, 43.5 Hours) was 1.92. The “O.D. Response to Varying Inhibitor Concentrations” value ([1]; 500 ppm, 22.5 Hours, added 25 h after inoculation) was 0.80, the “O.D. Response to Varying Inhibitor Concentrations” value ([1]; 500 ppm, 28.5 Hours) was 0.93 and the “O.D. Response to Varying Inhibitor Concentrations” value ([1]; 500 ppm, 43.5 Hours) was 1.00. For the same compound, the “O.D. Response to Varying Inhibitor Concentrations” value ([1]; 1000 ppm, 22.5 Hours, added 25 h after inoculation) was 0.70, the “O.D. Response to Varying Inhibitor Concentrations” value ([1]; 1000 ppm, 28.5 Hours) was 0.77 and the “O.D. Response to Varying Inhibitor Concentrations” value ([1]; 1000 ppm, 43.5 Hours) was 0.78.

In the case of CCOC(=O)C=C(C(F)(F)F)C(F)(F)F [Compound A, ethyl 4,4,4-trifluoro-3-(trifluoromethyl)crotonate], the “Product distribution of C2, C4 and C6 acids and alcohols” value (C. carboxidivorans) is reported as “virtually all the product observed was the C2 alcohol”, the “Butyrate Production” value ([2]; 4.5 Hours) is reported as 0.04 grams per liter and the “Butyrate Production” value ([2]; 6 Hours) is reported as 0.06 grams per liter and 0.05 grams per liter. For the same compound, the “Butyrate Production” value ([2]; 24 Hours) was 0.10 grams per liter and 0.08 grams per liter, the “O.D. Response” value ([1]; 0 Hours, added 2 h after inoculation) was 0.42 and the “O.D. Response” value ([1]; 2 Hours, added 2 h after inoculation) was 0.10. For the same compound, the “O.D. Response” value ([1]; 4.5 Hours) was 0.14 and 0.11, the “O.D. Response” value ([1]; 6 Hours) was 0.13 and the “O.D. Response” value ([1]; 24 Hours) was 0.12.
